The values below come from US11667602B2, “Compounds and their use” (AstraZeneca AB, priority 2020, dated 2023).

Values after ≈ are worked out from the molar mass of the structure shown.

The nature of series [1]: Rat Hepatocyte Stability (Test E). The format is in vitro ADME. Particulars: rat, hepatocytes, geometric mean if run multiple times. A digest of the protocol:
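Run per the published AstraZeneca-type rat hepatocyte stability protocol (Wernevik et al. panel). Values are mean intrinsic clearance, Clint in μl/min/10^6 cells; geometric mean used for repeated runs.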

The nature of series [2]: Human Liver Microsomal Stability (Test C). The format is in vitro ADME. Particulars: human, liver microsomes. The method in brief:
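Human liver microsome incubation per the Wernevik et al. integrated DMPK panel protocol. Intrinsic clearance reported as CLint in μl/min/mg protein, averaged arithmetically over repeat runs.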
(In general: Microsomes from liver hold many membrane-bound enzymes, among them those of drug oxidation.)

A short description of another series: Solubility (Test F). The format is physicochemical. Particulars: arithmetic mean if run multiple times. As to the method: The assay was conducted according to the Solubility Assay described in pages 164-167 of Wernevik, J. et al., “A Fully Integrated Assay Panel for Early Drug Metabolism and Pharmacokinetics Profiling”, Assay and Drug Development Technologies, 2020, 18(4), 157-179. Data are reported in Table 36 as solubility ([…]. Where the assay was run multiple times for the same compound, the arithmetic mean is reported.

A further series addresses T1, human RXFP1 (Homo sapiens, UniProt Q9HBX9).
T1 sequence (Q9HBX9 1-757): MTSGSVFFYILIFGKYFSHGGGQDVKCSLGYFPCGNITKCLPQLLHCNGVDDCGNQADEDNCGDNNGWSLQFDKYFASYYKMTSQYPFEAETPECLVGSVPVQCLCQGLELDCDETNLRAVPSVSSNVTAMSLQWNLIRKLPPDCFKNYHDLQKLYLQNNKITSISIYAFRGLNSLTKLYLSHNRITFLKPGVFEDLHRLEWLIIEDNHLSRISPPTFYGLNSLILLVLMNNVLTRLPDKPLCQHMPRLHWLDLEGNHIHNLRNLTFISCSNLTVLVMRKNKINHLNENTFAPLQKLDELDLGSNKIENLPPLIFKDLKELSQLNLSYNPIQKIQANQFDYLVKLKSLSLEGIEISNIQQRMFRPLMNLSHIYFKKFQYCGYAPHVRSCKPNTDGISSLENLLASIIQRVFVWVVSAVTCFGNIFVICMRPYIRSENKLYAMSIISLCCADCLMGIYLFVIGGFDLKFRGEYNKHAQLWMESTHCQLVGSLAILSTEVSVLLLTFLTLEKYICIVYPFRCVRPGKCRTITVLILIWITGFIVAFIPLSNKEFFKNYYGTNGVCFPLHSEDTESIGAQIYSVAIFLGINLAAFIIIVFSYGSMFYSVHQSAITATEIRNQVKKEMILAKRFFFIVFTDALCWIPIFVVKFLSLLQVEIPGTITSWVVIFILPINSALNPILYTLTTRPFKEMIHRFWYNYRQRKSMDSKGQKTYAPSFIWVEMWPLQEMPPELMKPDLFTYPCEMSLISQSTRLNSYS
Kind of series: RXFP1 Hu cAMP (Test A). The format is cell-based. Further details: expressed in transfected cells; host or cells: Jump-In T-REx CHO-K1 cells (ThermoFisher), induced with 10 ng/ml doxycycline for 24 h. As to conditions: RXFP1 Hu cAMP; for EC50: read-out: Test A EC50. The method in brief:
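Cells: CHO-K1 stably carrying human RXFP1, expressed after 24 h 10 ng/ml doxycycline; 0.5 mM IBMX final, HTRF detection after 2 h at room temperature.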

Series [3] in a line: Human Plasma Protein Binding (Test B). Particulars: fraction unbound (fu). Format: in vitro ADME. A digest of the protocol: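 Human plasma protein binding run per the published Wernevik et al. (2020) integrated DMPK panel protocol. Values are fraction unbound (fu, % free); repeat runs averaged arithmetically.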

In the case of `COc1cc(F)c(O[C@H]2CC[C@@](C)(C(=O)O)CC2)cc1C(=O)N[C@@H]1[C@H]2CC[C@H](C2)[C@@H]1C(=O)N[C@@H](C)C(C)C` [Example 42], the hepatocyte CLint in series [1] is 19 µL/min/1e6 cells. In series [2], this molecule came in with a microsomal CLint of under 3 µL/min/mg. This molecule also displayed a solubility in “Solubility (Test F)” of over 1000 µM. The “Test A Sinf” value on human RXFP1 is recorded as 95%. Also, the “Test B Human Plasma Protein Binding (% free)” value in series [3] is recorded as 5.4 % free.

In series [1], `COc1cc(C#N)c(O[C@H]2CC[C@@](C)(C(=O)O)CC2)cc1C(=O)N[C@@H]1[C@H]2CC[C@H](C2)[C@@H]1C(=O)NC1(C)CC1` [Example 100] showed a hepatocyte CLint of 9.6 µL/min/1e6 cells. In series [2], this molecule gave a microsomal CLint of under 3 µL/min/mg. Moreover, the concentration in solution in “Solubility (Test F)” (solubility) was 920 µM (≈ 482 µg/mL). At human RXFP1, the “Test A Sinf” value is listed as 100% and the EC50 was over 4600 nM. The “Test B Human Plasma Protein Binding (% free)” value in series [3] is on record as 30 % free.

`COc1cc(C#N)c(O[C@H]2CC[C@@](C)(C(=O)O)CC2)cc1C(=O)N[C@@H]1[C@H]2CC[C@H](C2)[C@@H]1C(=O)NCC(=O)NC(C)C` [Example 85] had a hepatocyte CLint in series [1] of 15 µL/min/1e6 cells. The microsomal CLint in series [2] is under 3 µL/min/mg. Further, the concentration in solution in “Solubility (Test F)” (solubility) came to 920 µM (≈ 523 µg/mL). The EC50 on human RXFP1 is over 9400 nM. Also, the “Test B Human Plasma Protein Binding (% free)” value in series [3] came to 50 % free.

Consider `COc1cc(C#N)c(O[C@H]2CC[C@@](C)(C(=O)O)CC2)cc1C(=O)N[C@@H]1[C@H]2CC[C@H](C2)[C@@H]1C(=O)NCC1(C)CCCCCC1` [Example 105], for which the hepatocyte CLint in series [1] was found to be 48 µL/min/1e6 cells. The microsomal CLint in series [2] was over 300 µL/min/mg. Also, in the series “Solubility (Test F)”, the solubility stood at 220 µM (≈ 131 µg/mL). Besides, at human RXFP1, the “Test A Sinf” value is listed as 125% and the EC50 was determined as 4.8 nM. In series [3], the “Test B Human Plasma Protein Binding (% free)” value is 2.5 % free.

On to `COc1cc(F)c(O[C@H]2CC[C@@](C)(C(=O)O)CC2)cc1C(=O)N[C@@H]1CCC[C@@H]1C(=O)NCC1(CF)CC1` [Example 56, (1S,4s)-4-(2-Fluoro-5-(((1R,2S)-2-(((1-(fluoromethyl)cyclopropyl)methyl)carbamoyl)cyclopentyl)carbamoyl)-4-methoxyphenoxy)-1-methylcyclohexane-1-carboxylic acid], for which the hepatocyte CLint in series [1] worked out at 17 µL/min/1e6 cells. This molecule came in with a microsomal CLint in series [2] of under 3 µL/min/mg. The amount in solution in “Solubility (Test F)” (solubility) came to 980 µM (≈ 512 µg/mL). For the same molecule, at human RXFP1, the “Test A Sinf” value was determined as 105% and the EC50 came out at 12000 nM. Moreover, in series [3], the “Test B Human Plasma Protein Binding (% free)” value is reported as 21 % free.

`COc1cc(F)c(O[C@H]2CC[C@@H](C(=O)O)CC2)cc1C(=O)N[C@@H]1[C@H]2CC[C@H](C2)[C@@H]1C(=O)Nc1cc(F)c(F)c(F)c1` [Example 187] registered a hepatocyte CLint in series [1] of 21 µL/min/1e6 cells. The molecule also had a microsomal CLint in series [2] of 15 µL/min/mg. Moreover, the solubility in “Solubility (Test F)” was determined as 580 µM (≈ 336 µg/mL). Further, on human RXFP1, the “Test A Sinf” value stood at 105% and the half-maximal effective concentration (EC50) stood at 250 nM. Besides, in series [3], the “Test B Human Plasma Protein Binding (% free)” value is on record as 0.41 % free.

Turning to `COc1cc(F)c(O[C@H]2CC[C@@H](C(=O)O)CC2)cc1C(=O)N[C@@H]1[C@H]2CC[C@H](C2)[C@@H]1C(=O)Nc1ccc(Cl)c(C(F)(F)F)c1` [Example 186], the hepatocyte CLint in series [1] was found to be 20 µL/min/1e6 cells. Further, the microsomal CLint in series [2] was 27 µL/min/mg. This molecule registered a solubility in “Solubility (Test F)” of 80 µM (≈ 50.2 µg/mL). For the same molecule, at human RXFP1, the “Test A Sinf” value worked out at 110% and the EC50 was 18 nM. In addition, the “Test B Human Plasma Protein Binding (% free)” value in series [3] is recorded as 0.24 % free.

Molecule `COc1cc(F)c(O[C@H]2CC[C@@H](C(=O)O)CC2)cc1C(=O)N[C@@H]1[C@H]2CC[C@H](C2)[C@@H]1C(=O)Nc1cc(C(F)(F)F)cc(C(F)(F)F)c1` [Example 22, (1S,4s)-4-(5-(((1S,2R,3S,4R)-3-((3,5-Bis(trifluoromethyl)phenyl)carbamoyl)bicyclo[2.2.1]heptan-2-yl)carbamoyl)-2-fluoro-4-methoxyphenoxy)cyclohexane-1-carboxylic acid] returned a hepatocyte CLint in series [1] of 14 µL/min/1e6 cells. The microsomal CLint in series [2] was 23 µL/min/mg. In the series “Solubility (Test F)”, this molecule came in with a solubility of 51 µM (≈ 33.7 µg/mL). For the same molecule, at human RXFP1, the “Test A Sinf” value was 130%. Moreover, the “Test B Human Plasma Protein Binding (% free)” value in series [3] was determined as 0.23 % free.

For `COc1cc(C#N)c(O[C@H]2CC[C@@](C)(C(=O)O)CC2)cc1C(=O)N[C@@H]1[C@H]2CC[C@H](C2)[C@@H]1C(=O)NC1(C#N)CC1` [Example 72], the hepatocyte CLint in series [1] stood at 14 µL/min/1e6 cells. In series [2], this molecule came in with a microsomal CLint of under 3 µL/min/mg. This molecule also showed a solubility in the series “Solubility (Test F)” of 950 µM (≈ 508 µg/mL). At human RXFP1, the “Test A Sinf” value is listed as 75% and the EC50 is over 3100 nM. The “Test B Human Plasma Protein Binding (% free)” value in series [3] was 40 % free.

Molecule `COc1cc(F)c(O[C@H]2CC[C@@H](C(=O)O)CC2)cc1C(=O)N[C@@H]1[C@H]2CC[C@H](C2)[C@@H]1C(=O)NC1CCC1` [Example 177] returned a hepatocyte CLint in series [1] of 130 µL/min/1e6 cells. Also, the microsomal CLint in series [2] is 3.5 µL/min/mg. The solubility in “Solubility (Test F)” is over 1000 µM. On human RXFP1, the “Test A Sinf” value is recorded as 100% and the EC50 is over 2200 nM. Further, in series [3], the “Test B Human Plasma Protein Binding (% free)” value came out at 15 % free.

Molecule `COc1cc(C#N)c(O[C@H]2CC[C@@](C)(C(=O)O)CC2)cc1C(=O)N[C@@H]1[C@H]2CC[C@H](C2)[C@@H]1C(=O)NCC1CC1` [Example 71, (1S,4s)-4-(2-Cyano-5-(((1S,2R,3S,4R)-3-((cyclopropylmethyl)carbamoyl)bicyclo[2.2.1]heptan-2-yl)carbamoyl)-4-methoxyphenoxy)-1-methylcyclohexane-1-carboxylic acid] returned a hepatocyte CLint in series [1] of 28 µL/min/1e6 cells. In addition, in series [2], the intrinsic metabolic clearance (microsomal CLint) is under 3 µL/min/mg. This molecule had a solubility in “Solubility (Test F)” of 940 µM (≈ 492 µg/mL). Further, the EC50 at human RXFP1 amounted to 390 nM. The “Test B Human Plasma Protein Binding (% free)” value in series [3] was 17 % free.

For the molecule `COc1cc(F)c(O[C@H]2CC[C@@H](C(=O)O)CC2)cc1C(=O)N[C@@H]1[C@H]2CC[C@H](C2)[C@@H]1C(=O)Nc1cccc(CF)c1` [Example 11, (1S,4s)-4-(2-Fluoro-5-(((1S,2R,3S,4R)-3-((3-(fluoromethyl)phenyl)carbamoyl)bicyclo[2.2.1]heptan-2-yl)carbamoyl)-4-methoxyphenoxy)cyclohexane-1-carboxylic acid], the hepatocyte CLint in series [1] is over 300 µL/min/1e6 cells. The molecule further showed a microsomal CLint in series [2] of 36 µL/min/mg. The solubility in “Solubility (Test F)” is over 1000 µM. Further, at human RXFP1, the “Test A Sinf” value was 104%. Further, the “Test B Human Plasma Protein Binding (% free)” value in series [3] is given as 3.3 % free.

In turn, `COc1cc(F)c(O[C@H]2CC[C@@](C)(C(=O)O)CC2)cc1C(=O)N[C@@H]1CCC[C@@H]1C(=O)NCC(C)(C)C#N` [Example 69] showed a hepatocyte CLint in series [1] of 6.4 µL/min/1e6 cells. Moreover, the intrinsic metabolic clearance (microsomal CLint) in series [2] worked out at 6.3 µL/min/mg. In “Solubility (Test F)”, this molecule had a solubility of 970 µM (≈ 502 µg/mL). For the same molecule, at human RXFP1, the “Test A Sinf” value was 93% and the EC50 is over 2700 nM. Moreover, in series [3], the “Test B Human Plasma Protein Binding (% free)” value was determined as 33 % free.

Turning to `COc1cc(F)c(O[C@H]2CC[C@@H](C(=O)O)CC2)cc1C(=O)N[C@@H]1[C@H]2CC[C@H](C2)[C@@H]1C(=O)Nc1c(F)cccc1F` [Example 184, (1S,4s)-4-(5-(((1S,2R,3S,4R)-3-((2,6-Difluorophenyl)carbamoyl)bicyclo[2.2.1]heptan-2-yl)carbamoyl)-2-fluoro-4-methoxyphenoxy)cyclohexane-1-carboxylic acid], the hepatocyte CLint in series [1] worked out at 70 µL/min/1e6 cells. Also, the microsomal CLint in series [2] was found to be 7.4 µL/min/mg. In “Solubility (Test F)”, this molecule showed a solubility of over 1000 µM. In addition, the EC50 on human RXFP1 is over 40000 nM. Also, the “Test B Human Plasma Protein Binding (% free)” value in series [3] is recorded as 8.6 % free.

As usually defined, the hepatocyte CLint is the rate of metabolic loss divided by the concentration. Low values mean slow turnover, high ones rapid turnover. Usually microsomal CLint stands for the capacity of the preparation to metabolise the compound, expressed as a volume cleared per time. A high value points to faster metabolism. As a reminder, the solubility is the concentration that dissolves in the medium under given conditions. A high value points to a readily soluble substance. What is called EC50 is the concentration giving half of the maximal effect.
